≈ marks a conversion by molar mass, not a printed value.
Legend:
[1] = system: Vero; assay: Cytotoxicity against African green monkey Vero cells assessed as cell viability up to 62.5 ug/mL after 72 hrs by MTT assay; assay type: cell-based; details: chlorocebus sabaeus
[2] = system: Mycobacterium tuberculosis; assay: Potency index, ratio of pyrimethamine MIC90 to compound MIC90 for Mycobacterium tuberculosis H37Rv; assay type: functional
[3] = system: Mycobacterium tuberculosis; assay: Antimycobacterial activity against Mycobacterium tuberculosis H37Rv assessed as growth inhibition by Alamar Blue staining-based broth microdilution assay; assay type: functional, organism-based
[4] = system: Mycobacterium tuberculosis; assay: Potency index, ratio of pyrimethamine EC90 to compound EC90 for Mycobacterium tuberculosis H37Rv; assay type: functional
[5] = system: Mycobacterium tuberculosis; assay: Potency index, ratio of pyrimethamine EC50 to compound EC50 for Mycobacterium tuberculosis H37Rv; assay type: functional
[6] = system: Mycobacterium tuberculosis; assay: Potency index, ratio of cycloserine EC50 to compound EC50 for Mycobacterium tuberculosis H37Rv; assay type: functional

SMILES	Activity [1]	Ratio [2]	EC50 [3]	EC90 [3]	MIC90 [3]	Ratio [4]	Ratio EC50 [5]	Ratio EC50 [6]
O=C(C1CC1)C(c1ccccc1F)N1C(=O)CSC1=O (stereo unspecified)	Non-toxic	4	6 µM	26 µM	25 µM (≈ 7.33 µg/mL)	–	–	–
O=C(C1CC1)C(c1ccccc1F)N1C(=O)S/C(=C\c2ccc3c(c2)OCO3)C1=O (stereo unspecified)	Non-toxic	4	9 µM	21 µM	25 µM (≈ 10.6 µg/mL)	–	–	–
O=C(C1CC1)C(c1ccccc1F)N1C(=O)S/C(=C\c2ccc(N3CCCCC3)cc2)C1=O (stereo unspecified)	Non-toxic	4	24 µM	36 µM	25 µM (≈ 11.6 µg/mL)	–	–	–
COc1ccc(/C=C2\SC(=O)N(C(C(=O)C3CC3)c3ccccc3F)C2=O)cc1 (stereo unspecified)	Non-toxic	4	11 µM	27 µM	25 µM (≈ 10.3 µg/mL)	–	–	–
O=C(C1CC1)C(c1ccccc1F)N1C(=O)S/C(=C\c2cc(Br)cs2)C1=O (stereo unspecified)	Non-toxic	–	18 µM	27 µM	50 µM (≈ 23.3 µg/mL)	–	–	–
O=C(C1CC1)C(c1ccccc1F)N1C(=O)S/C(=C\c2ccc(O)cc2)C1=O (stereo unspecified)	Non-toxic	4	10 µM	19 µM	25 µM (≈ 9.94 µg/mL)	–	–	–
COc1cc(/C=C2\SC(=O)N(C(C(=O)C3CC3)c3ccccc3F)C2=O)cc(OC)c1OC (stereo unspecified)	Non-toxic	–	19 µM	53 µM	50 µM (≈ 23.6 µg/mL)	–	–	–
CC[C@@H](CO)NCCN[C@@H](CC)CO [ETHAMBUTOL]	–	–	< 1.56 µM	32.8 µM	12.5 µM (≈ 2.55 µg/mL)	–	–	–
COc1cc(OC)c(/C=C2\SC(=O)N(C(C(=O)C3CC3)c3ccccc3F)C2=O)c(OC)c1 (stereo unspecified)	Non-toxic	–	13 µM	27 µM	50 µM (≈ 23.6 µg/mL)	–	–	–
COc1ccc(/C=C2\SC(=O)N(C(C(=O)C3CC3)c3ccccc3F)C2=O)cc1OC (stereo unspecified)	Non-toxic	4	8 µM	16 µM	25 µM (≈ 11 µg/mL)	–	–	–
COc1cc(Br)c(/C=C2\SC(=O)N(C(C(=O)C3CC3)c3ccccc3F)C2=O)cc1O (stereo unspecified)	Non-toxic	–	15 µM	54 µM	50 µM (≈ 25.3 µg/mL)	–	–	–
O=C(C1CC1)C(c1ccccc1F)N1C(=O)S/C(=C\c2cccs2)C1=O (stereo unspecified)	Non-toxic	4	6 µM	11 µM	25 µM (≈ 9.69 µg/mL)	6.26	5.85	1.95
NNC(=O)c1ccncc1 [ISONIAZID]	–	–	0.18 µM	0.29 µM	0.31 µM (≈ 0.0425 µg/mL)	–	–	–
O=C(C1CC1)C(c1ccccc1F)N1C(=O)S/C(=C\c2c[nH]c3ccccc23)C1=O (stereo unspecified)	Non-toxic	4	18 µM	27 µM	25 µM (≈ 10.5 µg/mL)	–	–	–
O=C(C1CC1)C(c1ccccc1F)N1C(=O)S/C(=C\c2ccccc2)C1=O (stereo unspecified)	Non-toxic	–	17 µM	36 µM	50 µM (≈ 19.1 µg/mL)	–	–	–
O=C(C1CC1)C(c1ccccc1F)N1C(=O)S/C(=C\c2ccc(F)cc2)C1=O (stereo unspecified)	Non-toxic	4	11 µM	25 µM	25 µM (≈ 9.99 µg/mL)	–	–	–
NCC[C@H](O)C(=O)N[C@@H]1C[C@H](N)[C@@H](O[C@H]2O[C@H](CN)[C@@H](O)[C@H](O)[C@H]2O)[C@H](O)[C@H]1O[C@H]1O[C@H](CO)[C@@H](O)[C@H](N)[C@H]1O [AMIKACIN]	–	–	–	0.08 µM	0.16 µM (≈ 0.0937 µg/mL)	–	–	–
O=C(C1CC1)C(c1ccccc1F)N1C(=O)S/C(=C\c2ccc3ccccc3n2)C1=O (stereo unspecified)	Non-toxic	4	14 µM	68 µM	25 µM (≈ 10.8 µg/mL)	–	–	–
N[C@@H]1CONC1=O [CYCLOSERINE]	–	–	12.5 µM	13.5 µM	25 µM (≈ 2.55 µg/mL)	–	–	–
O=C(C1CC1)C(c1ccccc1F)N1C(=O)S/C(=C\c2ccc(O)c(O)c2)C1=O (stereo unspecified)	Non-toxic	4	21 µM	55 µM	25 µM (≈ 10.3 µg/mL)	–	–	–
CSc1ccc(/C=C2\SC(=O)N(C(C(=O)C3CC3)c3ccccc3F)C2=O)cc1 (stereo unspecified)	Non-toxic	4	16 µM	25 µM	25 µM (≈ 10.7 µg/mL)	–	–	–
O=C(C1CC1)C(c1ccccc1F)N1C(=O)S/C(=C\c2ccc(Cl)cc2)C1=O (stereo unspecified)	Non-toxic	–	25 µM	55 µM	50 µM (≈ 20.8 µg/mL)	–	–	–
CCc1nc(N)nc(N)c1-c1ccc(Cl)cc1 [PYRIMETHAMINE]	–	–	37.4 µM	75 µM	100 µM (≈ 24.9 µg/mL)	–	–	–
